Calls of active or inactive are those of the source.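 How the source made its calls: active means maximal percent inhibition of the deubiquitinase OTUD3 of at least 30% across the tested doses; inactive means the rest.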
Each compound was assayed against OTU domain-containing protein 3 (Homo sapiens) (UniProt Q5T2D3) (assay: Validation of screening hits, potency titration, in vitro enzymatic, OTU domain-containing protein 3 DUB inhibitors (AID 1645868)). Details: purified OTUD3, ubiquitin-rhodamine cleavage fluorescence, 2 h.
Chain of OTU domain-containing protein 3 (Homo sapiens) (Q5T2D3 whole entry, looked up, the tested form may be a part): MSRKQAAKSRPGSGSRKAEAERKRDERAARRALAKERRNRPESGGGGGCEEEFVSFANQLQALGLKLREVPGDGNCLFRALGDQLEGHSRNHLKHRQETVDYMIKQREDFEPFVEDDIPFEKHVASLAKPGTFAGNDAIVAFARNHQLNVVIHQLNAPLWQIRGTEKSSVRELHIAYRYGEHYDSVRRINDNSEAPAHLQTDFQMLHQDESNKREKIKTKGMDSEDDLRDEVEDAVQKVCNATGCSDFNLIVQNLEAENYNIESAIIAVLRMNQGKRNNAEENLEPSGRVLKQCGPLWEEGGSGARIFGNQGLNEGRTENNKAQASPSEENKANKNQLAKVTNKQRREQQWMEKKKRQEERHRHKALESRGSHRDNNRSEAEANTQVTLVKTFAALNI

Row | SMILES | IC50
1 | FC(F)(F)c1cccc(N2CCN(c3nc4ccccc4n4nnnc34)CC2)c1 | > 50 µM (inactive)
2 | O=C(Nc1nc2ccccc2s1)c1ccc2c(c1)C(=O)N(Cc1cccnc1)C2=O | 38.5 µM
3 | COc1ccc(NC(=O)C2CC(=O)Nc3cc(-c4ccccc4)nn32)cc1 (configuration not stated) | 26.6 µM
4 | COc1ccccc1OCCNC(=O)c1cc(C2CC2)nc2c1cnn2C(C)C | > 50 µM (inactive)
5 | Cn1cccc1C(=O)N1CCCC2(C1)Nc1cccnc1NC2=NC1CCCC1 (configuration not stated) | > 50 µM (inactive)
6 | COC(=O)c1cc2c(ccn2C)n1CC(=O)NC1CCCC1 | > 50 µM (inactive)
7 | CCOc1ccc(NC(=O)COc2cccc3c2CCN(CC)C3=O)cc1 | > 50 µM (inactive)
8 | CC(C)c1nc2sc3c(NCc4ccco4)ncnc3c2c2c1CCC2 | > 50 µM (inactive)
9 | CC(=O)Nc1cc(-c2cccc(O)c2)cn2c(-c3cnn(C)c3)cnc12 | > 50 µM (inactive)
10 | Nc1ccc(NC(=O)c2cc3c(s2)CCC3)cc1[N+](=O)[O-] | 23.5 µM
11 | Cc1nn(-c2cccc(F)c2)c2c1c(C)c(CCC(=O)NCc1ccccn1)c(=O)n2C | > 50 µM (inactive)
12 | CCC(CC)n1[nH]c(=O)c2c1NC(=O)CSC2c1ccc2c(c1)OCO2 (configuration not stated) | 19.3 µM
13 | O=C(c1ccnn1-c1ccc2ccc(-c3ccncc3)cn12)N1CCCC1 | > 50 µM (inactive)
14 | COCCN(C1CCN(CCc2ccc(Cl)cc2)CC1)S(=O)(=O)c1cccc2cccnc12 | > 50 µM (inactive)
15 | Cc1cc(N2CCN(c3ncccn3)CC2)nc2ccc(NC(=O)c3ccncc3)cc12 | 31 µM
16 | Fc1ccc(CSc2nnc(-c3ccccn3)n2Cc2ccco2)cc1 | > 50 µM (inactive)
17 | Cc1cc(-c2cnc(N(C)C)nc2-c2ccc(CNC(=O)Cc3ccc(F)cc3)cc2)on1 | > 50 µM (inactive)
18 | O=C(NCc1ccc(Cl)cc1)c1ccc(N2CCCS2(=O)=O)cc1 | > 50 µM (inactive)
19 | O=C(/C=C/c1cnc2ccccc2c1)NCc1ccccc1 | > 50 µM (inactive)
20 | CCN(CCCNC(=O)c1ccc(Cn2c(=O)[nH]c3ccccc3c2=O)cc1)c1ccccc1 | 17.4 µM
21 | CC(C)N(C(=O)Cn1c(=O)[nH]c2ccccc21)c1ccccc1 | > 50 µM (inactive)
22 | COC1=CC(=O)c2c(O)c(C)c(CC(C)=O)c(O)c2C1=O | > 50 µM (inactive)
23 | Cc1ncc(CO)c2c1Oc1nc(-c3cccc(Cl)c3)nc(SCC(=O)N3CCCCC3)c1C2 | > 5 µM (inactive)
24 | O=C(Cn1c(=O)n(Cc2ccc(F)cc2)c(=O)c2sccc21)Nc1cccc(Cl)c1 | 23.1 µM
25 | COc1ccc(C)cc1NC(=O)C(NS(=O)(=O)c1ccc2c(c1)CCN2C(C)=O)C(C)C (configuration not stated) | > 50 µM (inactive)

Row | SMILES | IC50
26 | Cc1ccc2c(C)nc(Nc3ncc4c(n3)CC(c3ccco3)CC4=O)nc2c1 (configuration not stated) | 0.168 µM
27 | Nc1c(C(=O)NCc2ccc3c(c2)OCO3)nnn1Cc1ccc(Br)cc1F | 19.7 µM
28 | CN(C(=O)CSc1nnc(-c2cc3ccccc3n2C)o1)c1ccccc1 | > 50 µM (inactive)
29 | O=C(CCCCn1c(=O)[nH]c2ccccc2c1=O)Nc1cccc(Cl)c1 | 21.6 µM
30 | CCOC(=O)c1ccc(NC(=O)c2cnc(N3CCOCC3)nc2)cc1 | > 50 µM (inactive)
31 | CCOc1ccccc1NC(=O)Cn1ccn2nc(-c3ccc(OC)cc3)cc2c1=O | > 50 µM (inactive)
32 | CC(C)(C)c1ccc(C(=O)Nc2ccc(Oc3cccnc3)nc2)cc1 | > 50 µM (inactive)
33 | Cc1cccc(S(=O)(=O)N2CCc3nc4ccccc4n3CC2)c1 | 36.5 µM
34 | COc1ccc(NC(=O)CSc2oc(-c3ccc(C)cc3)nc2S(=O)(=O)c2ccc(Br)cc2)c(OC)c1 | > 50 µM (inactive)
35 | Cc1ccc(C)c(NC(=O)CCc2nc(CSc3nc4ccccc4o3)no2)c1 | 22 µM
36 | COc1cnc(CSc2ncccn2)cc1OCC(=O)Nc1cc(C)ccc1C | > 50 µM (inactive)
37 | Cc1ccc(NC(=O)c2ccc(N3CCOCC3)nn2)cc1F | > 50 µM (inactive)
38 | CC(C)(C)c1ccc(Cn2nnc3c(=O)[nH]c(C4CCN(S(=O)(=O)c5ccc(S(=O)(=O)NC6CC6)cc5)CC4)nc32)cc1 | > 50 µM (inactive)
39 | O=C(CSc1nnc2n1CCCCC2)Nc1ccc2[nH]c(=O)[nH]c2c1 | > 50 µM (inactive)
40 | Cn1ccc2c(cc(C(=O)NCCC3=CCCCC3)n2C)c1=O | > 50 µM (inactive)
41 | COc1ccc(C(=O)Nc2nc3n(n2)C(c2ccccc2)CC(=O)N3)cc1 (configuration not stated) | 18.7 µM
42 | COc1ccc(C(=O)Nc2ccc3c(c2)C(=O)N(C)c2ccccc2O3)cc1 | > 50 µM (inactive)
43 | Cc1ccc(CNC(=O)c2cnc3ccccc3n2)cc1 | > 50 µM (inactive)
44 | Cc1ccc(CN2CCCn3nc(C(=O)NCc4ccc(F)cc4)cc3C2=O)cc1 | > 50 µM (inactive)
45 | CCC(C)(C)C1CCC2(CC1)N=C(N)Nc1nc3ccccc3n12 (configuration not stated) | > 50 µM (inactive)
46 | Cc1cccc(C(=O)Nc2ccccc2Sc2nc3c(c(=O)n(C)c(=O)n3C)n2C)c1 | > 50 µM (inactive)
47 | CCC(=O)Nc1ccc2c(c1)nc(CSc1nccc(C)n1)n2CC | > 50 µM (inactive)
48 | Cn1c(CCN2CCCC2)nc2cc(NC(=O)c3ccccc3)ccc21 | > 50 µM (inactive)
49 | O=c1[nH]c(C2CCN(S(=O)(=O)c3ccc(S(=O)(=O)NC4CCCCC4)cc3)CC2)nc2c1nnn2Cc1c(Cl)cccc1Cl | 18.5 µM
50 | CCOC(=O)c1cnc(C(F)(F)F)nc1Sc1n[nH]c(-c2cccs2)n1 | > 50 µM (inactive)

Row | SMILES | IC50
51 | COc1ccc(OC)c(-c2c(C#N)c(C)nc3c2N2CCC3CC2)c1 | 25 µM
52 | CN(C)C1CCN(C(=O)c2cc(-c3ccn(-c4ccccc4)n3)n3ccccc23)CC1 | > 50 µM (inactive)
53 | CC(C)=CCCC1(C)OC2=C(C(=O)c3cc(O)cc(O)c3C2=O)[C@H]2C=C(C)CC[C@H]21 (some centres not stated) | > 50 µM (inactive)
54 | COc1ccc(NC(=O)c2ccc(-n3nnnc3SC)cc2)cc1Cl | > 50 µM (inactive)
55 | Cc1ccccc1C(=O)NCCn1cc(SCC(=O)Nc2ccc3c(c2)OCCO3)c2ccccc21 | > 50 µM (inactive)
56 | Cc1ccccc1NC(=O)Nc1ccccc1OCc1cc(=O)n2cccc(C)c2n1 | 4.24 µM
57 | c1csc(-c2nc(Nc3ccc4c(c3)CCC4)c3ccccc3n2)c1 | > 50 µM (inactive)
58 | COc1c2n(c3ccccc13)[C@@]1(O)C(=O)N(C)C(=O)[C@@]1(O)c1c-2n(C)c2ccc(Cl)cc12 | > 50 µM (inactive)
59 | CCCCCC(O)c1c(O)cc2c(c1O)C(=O)c1c(O)cc(O)cc1C2=O (configuration not stated) | > 50 µM (inactive)
60 | CCC(=O)Nc1ccc(-c2nc(Cn3cc(C)cn3)c(C)o2)cc1 | > 50 µM (inactive)
61 | O=S(=O)(c1ccccc1Cl)N1CCN(c2ccc3nnc(-c4ccco4)n3n2)CC1 | > 50 µM (inactive)
62 | Cn1c(=O)[nH]c2nncnc2c1=O | > 50 µM (inactive)
63 | O=C(CNC(=O)c1cccc(F)c1)Nc1nc2ccccc2[nH]1 | 35.4 µM
64 | O=C(O)Cc1ccc(Nc2nc3ccccc3n3nnnc23)cc1 | > 50 µM (inactive)
65 | Nc1c(-c2nc(-c3ccc4c(c3)OCO4)cs2)nnn1-c1ccccc1 | > 50 µM (inactive)
66 | Cc1ccc2cc(CNc3ccccc3)c(=O)n(CC(=O)Nc3ccccc3C)c2c1 | 26 µM
67 | Fc1ccc(-c2noc(-c3nnc(NCc4cccnc4)c4ccccc34)n2)cc1 | > 50 µM (inactive)
68 | COc1cccc(-n2c(=O)[nH]c3c(C(N)=O)nc(-c4ccc(OCc5ccccc5)cc4)nc32)c1 | > 50 µM (inactive)
69 | O=C1CC(C(=O)Nc2ccccc2F)n2nc(-c3ccccc3)cc2N1 (configuration not stated) | 25.1 µM
70 | O=C(O)c1nccnc1C(=O)N1CCc2ccccc2C1 | > 50 µM (inactive)
71 | COc1ccccc1Nc1ncc(C(=O)NCCc2ccc(Cl)cc2)c2ccccc12 | 21.2 µM
72 | COc1cccc(C(=O)NCc2[nH]nc3ccccc23)c1 | > 50 µM (inactive)
73 | N#Cc1cccc(NC(=O)Nc2cccn(Cc3ccccc3F)c2=O)c1 | > 50 µM (inactive)
74 | COc1ccccc1NC(=O)CSC1=NC2(CCCCC2)Nc2ccccc21 | > 50 µM (inactive)
75 | COc1ccccc1CNC(=O)Nc1cccc2ccccc12 | 44.7 µM

Row | SMILES | IC50
76 | CCn1cc2c(n1)c(=O)n(Cc1ccc(C)cc1)c(=O)n2CC(=O)Nc1ccc(F)cc1 | 22.7 µM
77 | Cc1nc(-c2ccc(NC(=O)N3CCN(c4ccccn4)CC3)cc2)no1 | > 50 µM (inactive)
78 | O=C(NCc1ccc2c(c1)OCO2)c1[nH]nc2c1COc1ccccc1-2 | 24.8 µM
79 | COc1ccc(OC)c(CCNC(=O)CCC2=NS(=O)(=O)c3ccc(C(F)(F)F)cc3N2)c1 | 29.2 µM
80 | Cc1ccccc1C(=O)OCCN1C(=O)c2cccc3c(N4CCCCC4)ccc(c23)C1=O | > 50 µM (inactive)
81 | COc1ccc2nc(NC(=O)C(CC(C)C)NS(=O)(=O)c3ccc4c(c3)CCN4C(C)=O)sc2c1 (configuration not stated) | 26.4 µM
82 | COc1ccccc1CNC(=O)c1ccc(CSc2nc3ccncc3n2Cc2ccccc2)cc1 | > 50 µM (inactive)
83 | c1ccc(CCN2CCc3nc4cccnc4cc3C2)nc1 | > 50 µM (inactive)
84 | COc1cccc(-n2nnc(C(=O)Nc3ccc(C)c(C)c3)c2C)c1 | > 50 µM (inactive)
85 | COc1cccc(-c2cc(C(=O)N3CCN(c4ccc(N5CCOCC5)nn4)CC3)[nH]n2)c1 | > 50 µM (inactive)
86 | Cc1ccc2c(Nc3ccc(CC(=O)O)cc3)c(C(=O)N3CCCC3)cnc2n1 | > 50 µM (inactive)
87 | COc1ccccc1/C=C/C(=O)Nc1nc2n(n1)C(c1ccc(Cl)cc1)CC(=O)N2 (configuration not stated) | > 50 µM (inactive)
88 | Cc1cc(C#N)c2c(C)ccc(C(C)C)cc1-2 | > 50 µM (inactive)
89 | CC(=O)c1oc2nc3c(c(-c4ccc(Cl)cc4)c2c1N)CCc1ccccc1-3 | > 50 µM (inactive)
90 | CC1=C(c2ccc(F)cc2)S(=O)(=O)NC1=NCC(=O)Nc1ccc(F)cc1 | > 50 µM (inactive)
91 | O=C(CC1C(=O)Nc2nc(-c3ccccc3)nn21)Nc1cccc2ccccc12 (configuration not stated) | 25 µM
92 | c1ccc(-c2noc(-c3cc(-c4ccncc4)nc4ccccc34)n2)nc1 | > 50 µM (inactive)
93 | O=C(COC(=O)c1cc(Cl)ccc1O)Nc1ccc2c(c1)OCCO2 | 37.1 µM
94 | COc1ccc(S(=O)(=O)N2CCN3Cc4ccccc4N(C)CC3C2)cc1 (configuration not stated) | > 50 µM (inactive)
95 | CCN(CC(=O)Nc1cc(C)on1)c1cccc2ccccc12 | > 50 µM (inactive)
96 | CSc1ccc(CNCc2c(C(=O)O)n(Cc3ccccc3)c3cc(C)ccc23)cc1 | > 50 µM (inactive)
97 | CN1CCN(c2ccc3nc(-c4ccccc4)c(-c4ccccc4)nc3c2)CC1 | > 50 µM (inactive)

— PubChem BioAssay AID1645868 (Buhrlage Lab, Dana-Farber Cancer Institute and Novartis …, 2021)
